Results: ChEMBL document CHEMBL1139600, “Synthesis, in vivo and in vitro biological activity of novel azaline B analogs” (Bioorg Med Chem Lett, 2005)
pIC50: −log10 of the molar value. *1 amine or outer side, *2 acyl side, *3 side chain or, on linkers, in order; H or OH if unused. Where a SMILES comes first, the peptide text is derived from it. [ ]: non-standard residue; d: D form. Phe(4-NH(5-NH2triazol-3-yl)) = Nc1nc(Nc2ccc(C[C@H](N)C(=O)O)cc2)n[nH]1; X1 = Nc1nc(Nc2ccc(C[C@@H](N[*:1])C(=O)[*:2])cc2)n[nH]1; dPhe(4-Cl) = N[C@H](Cc1ccc(Cl)cc1)C(=O)O; d2Nal = N[C@H](Cc1ccc2ccccc2c1)C(=O)O; Lys(iPr) = CC(C)NCCCC[C@H](N)C(=O)O; d3Pal = N[C@H](Cc1cccnc1)C(=O)O

Columns and labels:
[1] = biological target: T1, Gonadotropin-releasing hormone receptor (Homo sapiens, UniProt P30968); test: (§1) In vitro inhibition of human gonadotropin-releasing hormone expressed in HEK293 cells; type: cell-based
T1 sequence (P30968 whole entry): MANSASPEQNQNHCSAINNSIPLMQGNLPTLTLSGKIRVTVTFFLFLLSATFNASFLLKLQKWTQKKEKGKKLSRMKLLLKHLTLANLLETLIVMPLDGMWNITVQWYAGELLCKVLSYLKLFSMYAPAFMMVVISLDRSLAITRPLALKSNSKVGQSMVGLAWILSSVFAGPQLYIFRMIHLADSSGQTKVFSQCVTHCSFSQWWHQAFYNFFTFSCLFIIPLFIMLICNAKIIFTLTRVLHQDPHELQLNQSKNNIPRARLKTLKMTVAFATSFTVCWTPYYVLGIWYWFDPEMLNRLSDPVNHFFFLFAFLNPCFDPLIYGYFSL

[2] = biological target: T1, Gonadotropin-releasing hormone receptor; test: as §1; type: cell-based; remark: listed apart in the source

| SMILES | pIC50 [1] | pIC50 [2] |
| --- | --- | --- |
| CC(=O)N[C@H](Cc1ccc2ccccc2c1)C(=O)N[C@H](Cc1ccc(Cl)cc1)C(=O)N[C@H](Cc1cccnc1)C(=O)N[C@@H](CO)C(=O)N[C@@H](Cc1ccc(NC(=O)C(N)CCN)cc1)C(=O)N[C@H](Cc1ccc(NC(N)=O)cc1)C(=O)N[C@@H](CC(C)C)C(=O)N[C@@H](CCCCNC(C)C)C(=O)N1CCC[C@H]1C(=O)N[C@H](C)C(=O)O (some centres undefined) | 8.45 | 8.50 |
| CC(=O)N[C@H](Cc1ccc2ccccc2c1)C(=O)N[C@H](Cc1ccc(Cl)cc1)C(=O)N[C@H](Cc1cccnc1)C(=O)N[C@@H](CO)C(=O)N[C@@H](Cc1ccc(NC(=O)NC(=O)[C@H](N)CCC(N)=O)cc1)C(=O)N[C@H](Cc1ccc(NC(N)=O)cc1)C(=O)N[C@@H](CC(C)C)C(=O)N[C@@H](CCCCNC(C)C)C(=O)N1CCC[C@H]1C(=O)N[C@H](C)C(=O)O | 8.16 | 8.20 |
| CC(C)C[C@H](NC(=O)[C@@H](Cc1ccc(NC(N)=O)cc1)NC(=O)[C@H](Cc1ccc(NC(=O)C(N)CN)cc1)NC(=O)[C@H](CO)NC(=O)[C@@H](Cc1cccnc1)NC(=O)[C@@H](Cc1ccc(Cl)cc1)NC(=O)[C@H](N)Cc1ccc2ccccc2c1)C(=O)N[C@@H](CCCCNC(C)C)C(=O)N1CCC[C@H]1C(=O)N[C@H](C)C(=O)O (some centres undefined) | 8.55 | 8.50 |
| CC(=O)N[C@H](Cc1ccc2ccccc2c1)C(=O)N[C@H](Cc1ccc(Cl)cc1)C(=O)N[C@H](Cc1cccnc1)C(=O)N[C@@H](CO)C(=O)N[C@@H](Cc1ccc(NC(=O)C(N)CN)cc1)C(=O)N[C@H](Cc1ccc(NC(N)=O)cc1)C(=O)N[C@@H](CC(C)C)C(=O)N[C@@H](CCCCNC(C)C)C(=O)N1CCC[C@H]1C(=O)N[C@H](C)C(=O)O (some centres undefined) | 8.20 | 8.20 |

Stronger by pIC50 [2], values ahead:

| pIC50 [1] | pIC50 [2] | SMILES |
| --- | --- | --- |
| 8.73 | 8.70 | CC(=O)N[C@H](Cc1ccc2ccccc2c1)C(=O)N[C@H](Cc1ccc(Cl)cc1)C(=O)N[C@H](Cc1cccnc1)C(=O)N[C@@H](CO)C(=O)N[C@@H](Cc1ccc(NC(=O)[C@@H]2CCC(=O)N2)cc1)C(=O)N[C@H](Cc1ccc(NC(N)=O)cc1)C(=O)N[C@@H](CC(C)C)C(=O)N[C@@H](CCCCNC(C)C)C(=O)N1CCC[C@H]1C(=O)N[C@H](C)C(=O)O |
| 8.65 | 8.70 | CC(=O)N[C@H](Cc1ccc2ccccc2c1)C(=O)N[C@H](Cc1ccc(Cl)cc1)C(=O)N[C@H](Cc1cccnc1)C(=O)N[C@@H](CO)C(=O)N[C@@H](Cc1ccc(NC(=O)NC(=O)[C@H](N)CC(N)=O)cc1)C(=O)N[C@H](Cc1ccc(NC(N)=O)cc1)C(=O)N[C@@H](CC(C)C)C(=O)N[C@@H](CCCCNC(C)C)C(=O)N1CCC[C@H]1C(=O)N[C@H](C)C(=O)O |
| 8.61 | 8.60 | CC(=O)N[C@H](Cc1ccc2ccccc2c1)C(=O)N[C@H](Cc1ccc(Cl)cc1)C(=O)N[C@H](Cc1cccnc1)C(=O)N[C@@H](CO)C(=O)N[C@@H](Cc1ccc(NCC(=O)n2cc(C)c(=O)[nH]c2=O)cc1)C(=O)N[C@H](Cc1ccc(NC(N)=O)cc1)C(=O)N[C@@H](CC(C)C)C(=O)N[C@@H](CCCCNC(C)C)C(=O)N1CCC[C@H]1C(=O)N[C@H](C)C(N)=O |
| 8.75 | 8.70 | CC(=O)N[C@H](Cc1ccc2ccccc2c1)C(=O)N[C@H](Cc1ccc(Cl)cc1)C(=O)N[C@H](Cc1cccnc1)C(=O)N[C@@H](CO)C(=O)N[C@@H](Cc1ccc(NC(=O)C2CCNC(=O)N2)cc1)C(=O)N[C@H](Cc1ccc(NC(N)=O)cc1)C(=O)N[C@@H](CC(C)C)C(=O)N[C@@H](CCCCNC(C)C)C(=O)N1CCC[C@H]1C(=O)N[C@H](C)C(N)=O (some centres undefined) |
| 8.63 | 8.60 | CC(=O)N[C@H](Cc1ccc2ccccc2c1)C(=O)N[C@H](Cc1ccc(Cl)cc1)C(=O)N[C@H](Cc1cccnc1)C(=O)N[C@@H](CO)C(=O)N[C@@H](Cc1ccc(NC(=O)NC(=O)[C@@H](N)CC(N)=O)cc1)C(=O)N[C@H](Cc1ccc(NC(N)=O)cc1)C(=O)N[C@@H](CC(C)C)C(=O)N[C@@H](CCCCNC(C)C)C(=O)N1CCC[C@H]1C(=O)N[C@H](C)C(=O)O |
| – | 8.90 | CC(=O)N[C@H](Cc1ccc2ccccc2c1)C(=O)N[C@H](Cc1ccc(Cl)cc1)C(=O)N[C@H](Cc1cccnc1)C(=O)N[C@@H](CO)C(=O)N[C@@H](Cc1ccc(Nc2n[nH]c(N)n2)cc1)C(=O)N[C@H](Cc1ccc(Nc2n[nH]c(N)n2)cc1)C(=O)N[C@@H](CC(C)C)C(=O)N[C@@H](CCCCNC(C)C)C(=O)N1CCC[C@H]1C(=O)N[C@H](C)C(N)=O (Ac-[d2Nal][dPhe(4-Cl)][d3Pal]S[Phe(4-NH(5-NH2triazol-3-yl))][X1]L[Lys(iPr)]P[dA]-NH2) |
